In patent US8026233B2, “P38 inhibitors and methods of use thereof” (Array BioPharma Inc., priority 2006, dated 2011):

What was measured:
Conditions in all cases: stated in words only
[1] = target: p-glycoprotein (PGP) transporter (Homo sapiens, UniProt P08183); test: affinity for p-glycoprotein transporter
hERG channel = hERG channel (Homo sapiens, UniProt Q12809); test: activity in the hERG channel
first pass metabolism = test: first pass metabolism
bioavailability = format: in vivo

Chain of hERG channel (Q12809 whole entry): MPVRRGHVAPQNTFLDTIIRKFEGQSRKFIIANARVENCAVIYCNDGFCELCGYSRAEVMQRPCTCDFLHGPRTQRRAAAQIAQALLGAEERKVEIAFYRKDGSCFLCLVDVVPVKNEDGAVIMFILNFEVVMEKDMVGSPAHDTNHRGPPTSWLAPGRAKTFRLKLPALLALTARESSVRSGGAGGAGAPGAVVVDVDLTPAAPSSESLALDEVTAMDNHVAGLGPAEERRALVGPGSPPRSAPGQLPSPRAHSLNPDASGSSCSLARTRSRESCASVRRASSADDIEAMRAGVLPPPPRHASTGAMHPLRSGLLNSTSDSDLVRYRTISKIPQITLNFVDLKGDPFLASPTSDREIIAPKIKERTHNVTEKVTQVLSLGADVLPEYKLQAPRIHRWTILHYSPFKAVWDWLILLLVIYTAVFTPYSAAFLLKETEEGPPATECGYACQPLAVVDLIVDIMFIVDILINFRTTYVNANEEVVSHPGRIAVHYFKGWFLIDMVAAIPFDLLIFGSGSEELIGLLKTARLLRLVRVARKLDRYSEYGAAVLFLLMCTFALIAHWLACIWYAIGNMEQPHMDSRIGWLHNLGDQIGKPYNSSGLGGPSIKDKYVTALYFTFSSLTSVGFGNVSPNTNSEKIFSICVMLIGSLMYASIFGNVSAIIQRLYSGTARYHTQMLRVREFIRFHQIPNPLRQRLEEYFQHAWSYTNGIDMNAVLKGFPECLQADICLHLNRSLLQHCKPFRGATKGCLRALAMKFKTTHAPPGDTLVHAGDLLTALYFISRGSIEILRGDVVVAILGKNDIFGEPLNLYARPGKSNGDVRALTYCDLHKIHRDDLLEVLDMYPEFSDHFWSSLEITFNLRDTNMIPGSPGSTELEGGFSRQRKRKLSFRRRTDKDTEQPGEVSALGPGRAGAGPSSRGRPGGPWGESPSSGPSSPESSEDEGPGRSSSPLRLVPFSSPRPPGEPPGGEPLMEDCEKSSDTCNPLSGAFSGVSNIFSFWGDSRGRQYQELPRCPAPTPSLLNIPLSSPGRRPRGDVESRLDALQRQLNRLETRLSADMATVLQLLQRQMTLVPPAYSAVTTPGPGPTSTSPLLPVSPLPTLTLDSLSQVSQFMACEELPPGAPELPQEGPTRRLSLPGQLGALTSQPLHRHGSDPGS
Chain of p-glycoprotein (PGP) transporter (P08183 whole entry): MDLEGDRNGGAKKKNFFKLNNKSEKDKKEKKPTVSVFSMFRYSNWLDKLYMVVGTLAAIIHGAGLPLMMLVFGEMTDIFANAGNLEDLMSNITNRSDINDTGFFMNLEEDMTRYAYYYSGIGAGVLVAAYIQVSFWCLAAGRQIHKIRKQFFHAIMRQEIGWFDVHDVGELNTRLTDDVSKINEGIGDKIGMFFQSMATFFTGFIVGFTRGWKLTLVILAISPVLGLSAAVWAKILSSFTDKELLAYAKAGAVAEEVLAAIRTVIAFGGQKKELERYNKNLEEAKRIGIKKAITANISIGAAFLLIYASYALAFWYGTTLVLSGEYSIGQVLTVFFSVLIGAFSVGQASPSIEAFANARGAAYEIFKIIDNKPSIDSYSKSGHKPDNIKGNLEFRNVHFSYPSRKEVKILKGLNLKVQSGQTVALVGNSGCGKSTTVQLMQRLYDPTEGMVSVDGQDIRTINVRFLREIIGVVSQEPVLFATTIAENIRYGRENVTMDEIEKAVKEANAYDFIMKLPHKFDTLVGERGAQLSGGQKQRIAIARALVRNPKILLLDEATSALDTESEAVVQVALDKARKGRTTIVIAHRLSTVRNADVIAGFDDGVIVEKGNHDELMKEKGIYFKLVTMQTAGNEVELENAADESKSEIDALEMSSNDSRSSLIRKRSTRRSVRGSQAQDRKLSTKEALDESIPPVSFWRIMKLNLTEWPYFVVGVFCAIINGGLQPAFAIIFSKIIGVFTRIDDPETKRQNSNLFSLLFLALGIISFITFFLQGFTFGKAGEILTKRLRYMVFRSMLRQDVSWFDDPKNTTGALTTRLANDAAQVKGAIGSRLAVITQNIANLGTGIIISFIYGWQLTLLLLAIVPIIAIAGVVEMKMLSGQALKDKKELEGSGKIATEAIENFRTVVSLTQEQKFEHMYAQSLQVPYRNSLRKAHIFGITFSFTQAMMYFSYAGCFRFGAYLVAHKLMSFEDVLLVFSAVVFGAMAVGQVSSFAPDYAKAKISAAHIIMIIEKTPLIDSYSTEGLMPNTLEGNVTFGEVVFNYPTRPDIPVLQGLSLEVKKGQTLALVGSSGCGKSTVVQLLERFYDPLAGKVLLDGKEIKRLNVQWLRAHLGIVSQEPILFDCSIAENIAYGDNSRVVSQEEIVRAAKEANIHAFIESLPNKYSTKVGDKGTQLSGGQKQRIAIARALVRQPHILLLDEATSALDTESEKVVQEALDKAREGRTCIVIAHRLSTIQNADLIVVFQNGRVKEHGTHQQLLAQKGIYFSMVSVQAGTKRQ

affinity for p-glycoprotein (PGP) transporter (which affects cell permeability) [1]: low affinity
first pass metabolism (first pass metabolism): relatively low
bioavailability (bioavailability): relatively good
SMILES: CC(C)(F)Cn1ncc2cc(Oc3ccc(F)cc3F)c(C(=O)N[C@H]3CCNC3=O)cc21 [Example 27, (S)-5-(2,4-difluorophenoxy)-1-(2-fluoro-2-methylpropyl)-N-(2-oxopyrrolidin-3-yl)-1H-indazole-6-carboxamide]
activity in the hERG channel (a predictor for cardiac side effects) (hERG channel): low activity
